Square brackets hold non-standard residues; d marks the D form. Peptide text beside a SMILES is read from it. * marks the point of attachment. Dolaproine = CO[C@@H]([C@@H]1CCCN1)[C@@H](C)C(=O)O; Dil = CC[C@H](C)[C@H](NC)[C@@H](CC(=O)O)OC; X1 = C[C@@H](N*)[C@@H](O)c1ccccc1; NMeV = CN[C@H](C(=O)O)C(C)C
What was measured:
4T1 cells [1] = experiment: Tubulin formation in 4T1 cells (anti-tubulin antibody staining); type: cell-based, murine; conditions: after 24 h of treatment; Cy5.5 anti-tubulin antibody
Protocol: Then, cells were fixed with 4% paraformaldehyde fixative for 25 min, and stained with DAPI solution (Invitrogen, Carlsbad, CA, USA) for 15 min in the dark. Finally, the 4T1 cells were observed using a confocal laser scanning microscope (CLSM) equipped with 405 diode (405 nm) and HeNe-Red (633 nm) lasers (Leica, Wetzlar, Germany).

[2] = Toxicity study in 4T1 tumor-bearing mice (histology, hematology, body weight, survival); type: in vivo
Protocol: (§1) The antitumor efficacy was evaluated in the breast tumor models. The breast tumor models were prepared via subcutaneous injection of 1 × 10^6 4T1 cells. […] The mice were treated once every three days, and tumor volumes were calculated as the smallest diameter^2 × largest diameter × 0.53. The mice with a tumor volume of 2000 mm^3 or larger were counted as dead. […] The major organs were collected from mice on day 5 after treatments, and structural abnormality in the organ tissues was assessed by staining with H&E.

4T1 tumor = experiment: Antitumor efficacy in 4T1 breast tumor models; type: in vivo, mice
Protocol: as §1

H9C2 cells = experiment: Cytotoxicity, CCK-8 assay, H9C2 cells; type: cell-based, rat; conditions: 24 h incubation; CCK-8, 450 nm; read-out: IC50, cell viability, H9C2 cells
Protocol: (§2) First, […] 4T1 or H9C2 cells were seeded in the 96-well cell culture plates. […] Finally, the cell viability of each cell was measured using a microplate reader with 450 nm of wavelength (VERSAmaxTM; Molecular Devices Corp., San Jose, CA, USA).

4T1 cells [3] = experiment: Cytotoxicity, CCK-8 assay, 4T1 cells; type: cell-based, murine; conditions: 24 h incubation; CCK-8, 450 nm; read-out: IC50, cell viability, 4T1 cells
Protocol: as §2

[4] = cited from earlier work
From the text: Monomethyl auristatin E (MMAE), a synthetic analog of the natural product dolastatin 10, is a potent antimitotic agent that inhibits tubulin polymerization.

## CC[C@H](C)[C@@H]([C@@H](CC(=O)N1CCC[C@H]1[C@H](OC)[C@@H](C)C(=O)N[C@H](C)[C@@H](O)c1ccccc1)OC)N(C)C(=O)[C@@H](NC(=O)[C@@H](NC)C(C)C)C(C)C [MMAE, Monomethyl auristatin E] (H-[NMeV]V[Dil][Dolaproine]-X1)
4T1 cells [1]
  Tubulin formation in 4T1 cells compared to naive cells: significantly inhibited
[2]; 0.2 mg/kg MMAE equivalent once every three days
  Body weight: significant body weight loss
[2]; 0.2 mg/kg MMAE equivalent once every three days, 15 days
  Mice survival: all the mice were dead within five days
[2]; 0.2 mg/kg MMAE equivalent, after five days of treatment
  Hematological parameters (ALB, AST, ALT): significant changes
[2]; 0.2 mg/kg once every three days, after five days of treatment
  Structural abnormalities in normal organs (liver, lung, spleen, kidney and heart), H&E: severe systemic toxicity
4T1 tumor; 0.1 mg/kg MMAE once every three days, 15 days
  Tumor growth during monitoring for 15 days: rapid tumor growth compared to FRRG-MMAE-treated mice
4T1 tumor; 0.2 mg/kg based on MMAE contents, once every three days, day 5
  Tumor volume on day 5 after treatment: 154.73 ± 31.63 mm^3
H9C2 cells
  IC50: 1.17 nM
4T1 cells [3]
  IC50: 0.92 nM
[4]
  Antitumor efficacy, times more potent than doxorubicin: 100–1000 times
